Assays:
HL-60(TB) [1] = experiment: cells; conditions: Homo sapiens
U251 [2] = experiment: cells; conditions: Homo sapiens, U-251, read-out: LC50
NCI-H23 = experiment: cells; conditions: Homo sapiens, NCI-H23, read-out: LC50
SF-295 = experiment: cells; conditions: Homo sapiens, SF-295, read-out: LC50
NCI/ADR-RES [3] = experiment: cells; conditions: Homo sapiens
DU-145 = conditions: DU-145, Prostate Cancer; besylate salt
HS 578T = conditions: Breast Cancer, besylate salt
NCI-H322M = experiment: cells; conditions: Homo sapiens
U251 [4] = conditions: U251, CNS Cancer; besylate salt
NCI-H460 = conditions: NCI-H460, Non-Small Cell Lung Cancer; besylate salt
SNB-75 = experiment: cells; conditions: Homo sapiens
COLO 205 = conditions: COLO 205, Colon Cancer; besylate salt
MDA-MB-435 = conditions: MDA-MB-435, Breast Cancer; besylate salt
HT29 [5] = experiment: cells; conditions: Homo sapiens
MDA-MB-231/ATCC = experiment: cells; conditions: Homo sapiens, MDA-MB-231, read-out: LC50
CAKI-1 = experiment: cells; conditions: Homo sapiens
A549/ATCC = conditions: Non-Small Cell Lung Cancer, besylate salt
SN12C = conditions: Renal Cancer, besylate salt
UACC-62 = conditions: UACC-62, Melanoma; besylate salt
RXF 393 = experiment: cells; conditions: Homo sapiens
T-47D = experiment: cells; conditions: Homo sapiens, T47D, read-out: LC50
KM12 = conditions: KM12, Colon Cancer; besylate salt
NCI-H226 = experiment: cells; conditions: Homo sapiens
NCI-H522 = experiment: cells; conditions: Homo sapiens, NCI-H522, read-out: LC50
PC-3 = experiment: cells; conditions: Homo sapiens
NCI/ADR-RES [6] = conditions: Breast Cancer, besylate salt
UO-31 = experiment: cells; conditions: Homo sapiens
HL-60(TB) [7] = conditions: Leukemia, besylate salt
SW-620 [8] = conditions: SW-620, Colon Cancer; besylate salt
MCF7 = conditions: MCF7, Breast Cancer; besylate salt
HT29 [9] = conditions: HT29, Colon Cancer; besylate salt
OVCAR-5 = conditions: OVCAR-5, Ovarian Cancer; besylate salt
IGROV1 = experiment: cells; conditions: Homo sapiens
MALME-3M = conditions: Melanoma, besylate salt
HCT-15 = conditions: HCT-15, Colon Cancer; besylate salt
SW-620 [10] = experiment: cells; conditions: Homo sapiens, SW-620, read-out: LC50
TK-10 = experiment: cells; conditions: Homo sapiens, TK-10, read-out: LC50
RPM1-8226 = conditions: RPM1-8226, Leukemia; besylate salt
SR = experiment: cells; conditions: Homo sapiens

Question: For `COc1cc(Nc2ncc(F)c(Nc3ccc4c(n3)NC(=O)C(C)(C)O4)n2)cc(OC)c1OC` [Compound 1], which IC50 (HL-60(TB) [1]; HL-60, read-out: G150) is on record?
Answer: > 100 µM

Question: And the CC50 (HL-60(TB) [1]; HL-60, read-out: LC50)?
Answer: > 100 µM

Question: And the CC50 (U251 [2])?
Answer: > 100 µM

Question: And the CC50 (NCI-H23)?
Answer: > 100 µM

Question: And the CC50 (SF-295)?
Answer: > 100 µM

Question: What about the IC50 (NCI/ADR-RES [3]; read-out: G150) of the same compound?
Answer: > 100 µM

Question: What about the CC50 (NCI/ADR-RES [3]; read-out: LC50) of the same compound?
Answer: > 100 µM

Question: And the TGI (DU-145)?
Answer: >1.00E−4

Question: What about the TGI (HS 578T) of the same compound?
Answer: >1.00E−4

Question: What about the IC50 (NCI-H322M; read-out: G150) of the same compound?
Answer: > 100 µM

Question: And the CC50 (NCI-H322M; read-out: LC50)?
Answer: > 100 µM

Question: And the TGI (U251 [4])?
Answer: >1.00E−4

Question: What about the TGI (NCI-H460) of the same compound?
Answer: >1.00E−4

Question: What about the IC50 (SNB-75; SNB-75, read-out: G150) of the same compound?
Answer: 0.871 µM

Question: And the CC50 (SNB-75; SNB-75, read-out: LC50)?
Answer: > 100 µM

Question: What about the TGI (COLO 205) of the same compound?
Answer: >1.00E−4

Question: What about the TGI (MDA-MB-435) of the same compound?
Answer: >1.00E−4

Question: And the IC50 (HT29 [5]; HT-29, read-out: G150)?
Answer: 2.19 µM

Question: What about the CC50 (HT29 [5]; HT-29, read-out: LC50) of the same compound?
Answer: > 100 µM

Question: And the CC50 (MDA-MB-231/ATCC)?
Answer: > 100 µM

Question: And the IC50 (CAKI-1; CAKI-1, read-out: G150)?
Answer: 0.0515 µM

Question: What about the CC50 (CAKI-1; CAKI-1, read-out: LC50) of the same compound?
Answer: > 100 µM

Question: And the TGI (A549/ATCC)?
Answer: >1.00E−4

Question: And the TGI (SN12C)?
Answer: >1.00E−4

Question: And the TGI (UACC-62)?
Answer: >1.00E−4

Question: And the IC50 (RXF 393; RXF 393, read-out: G150)?
Answer: 0.196 µM

Question: And the CC50 (RXF 393; RXF 393, read-out: LC50)?
Answer: > 100 µM

Question: And the CC50 (T-47D)?
Answer: > 100 µM

Question: What about the TGI (KM12) of the same compound?
Answer: >1.00E−4

Question: What about the IC50 (NCI-H226; NCI-H226, read-out: G150) of the same compound?
Answer: 0.497 µM

Question: What about the CC50 (NCI-H226; NCI-H226, read-out: LC50) of the same compound?
Answer: > 100 µM

Question: And the CC50 (NCI-H522)?
Answer: > 100 µM

Question: What about the IC50 (PC-3; PC-3, read-out: G150) of the same compound?
Answer: 3.07 µM

Question: And the CC50 (PC-3; PC-3, read-out: LC50)?
Answer: > 100 µM

Question: What about the TGI (NCI/ADR-RES [6]) of the same compound?
Answer: >1.00E−4

Question: And the IC50 (UO-31; UO-31, read-out: G150)?
Answer: 0.596 µM

Question: And the CC50 (UO-31; UO-31, read-out: LC50)?
Answer: > 100 µM

Question: And the TGI (HL-60(TB) [7])?
Answer: >1.00E−4

Question: What about the TGI (SW-620 [8]) of the same compound?
Answer: >1.00E−4

Question: And the TGI (MCF7)?
Answer: >1.00E−4

Question: What about the TGI (HT29 [9]) of the same compound?
Answer: >1.00E−4

Question: What about the TGI (OVCAR-5) of the same compound?
Answer: >1.00E−4

Question: What about the IC50 (IGROV1; IGROV-1, read-out: G150) of the same compound?
Answer: 0.796 µM

Question: And the CC50 (IGROV1; IGROV-1, read-out: LC50)?
Answer: > 100 µM

Question: And the TGI (MALME-3M)?
Answer: >1.00E−4

Question: And the TGI (HCT-15)?
Answer: >1.00E−4

Question: And the CC50 (SW-620 [10])?
Answer: > 100 µM

Question: And the CC50 (TK-10)?
Answer: > 100 µM

Question: And the TGI (RPM1-8226)?
Answer: >1.00E−4

Question: What about the IC50 (SR; read-out: G150) of the same compound?
Answer: 3.56 µM

Question: What about the CC50 (SR; read-out: LC50) of the same compound?
Answer: > 100 µM
